# Experimental data taken from the supplement of paper PMC10307832.
# Assays:
# Test in all cases: relative viability (nuclei count vs DMSO), 5 days (fraction); higher = more cells survive
# Dactolisib + Decitabine = compound: Cn1c(=O)n(-c2ccc(C(C)(C)C#N)cc2)c2c3cc(-c4cnc5ccccc5c4)ccc3ncc21 [Dactolisib] + Nc1ncn([C@H]2C[C@H](O)[C@@H](CO)O2)c(=O)n1 [Decitabine] (partner 2 µM)
# Summary of the method: (§1)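 Each reported value is a median over duplicate plates. It expresses relative viability: treated-well nuclei count divided by vehicle-well nuclei count. Lung cancer cell lines in 1536-well plates were dosed by pin tool a day after seeding, alone with one drug or with a fixed anchor-drug dose plus five library-drug doses (not always all listed) in √10 steps, and nuclei were counted after 5 days.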
# Dactolisib + Olaparib = compound: Cn1c(=O)n(-c2ccc(C(C)(C)C#N)cc2)c2c3cc(-c4cnc5ccccc5c4)ccc3ncc21 [Dactolisib] + O=C(c1cc(Cc2n[nH]c(=O)c3ccccc23)ccc1F)N1CCN(C(=O)C2CC2)CC1 [Olaparib] (partner 8 µM)
# Summary of the method: as §1
# Dactolisib + OSI-027 = compound: Cn1c(=O)n(-c2ccc(C(C)(C)C#N)cc2)c2c3cc(-c4cnc5ccccc5c4)ccc3ncc21 [Dactolisib] + COc1cccc2cc(-c3nc([C@H]4CC[C@H](C(=O)O)CC4)n4ncnc(N)c34)[nH]c12 [OSI-027] (partner 0.5 µM)
# Summary of the method: as §1
# AZ505 + Pemetrexed = compound: C1CCC(CC1)N(CCNCCC2=C3C(=C(C=C2)O)NC(=O)CO3)C(=O)CCNCCC4=CC(=C(C=C4)Cl)Cl [AZ505] + Nc1nc2[nH]cc(CCc3ccc(C(=O)N[C@@H](CCC(=O)O)C(=O)O)cc3)c2c(=O)[nH]1 [Pemetrexed] (partner 0.2 µM)
# Summary of the method: as §1
Cell Line,relative viability (Dactolisib + Decitabine; first compound 0.002 µM),relative viability (Dactolisib + Decitabine; first compound 0.006325 µM),relative viability (Dactolisib + Decitabine; first compound 0.02 µM),relative viability (Dactolisib + Decitabine; first compound 0.06325 µM),relative viability (Dactolisib + Decitabine; first compound 0.2 µM),relative viability (Dactolisib + Olaparib; first compound 0.002 µM),relative viability (Dactolisib + Olaparib; first compound 0.006325 µM),relative viability (Dactolisib + Olaparib; first compound 0.02 µM),relative viability (Dactolisib + Olaparib; first compound 0.06325 µM),relative viability (Dactolisib + Olaparib; first compound 0.2 µM),relative viability (Dactolisib + OSI-027; first compound 0.002 µM),relative viability (Dactolisib + OSI-027; first compound 0.006325 µM),relative viability (Dactolisib + OSI-027; first compound 0.02 µM),relative viability (Dactolisib + OSI-027; first compound 0.06325 µM),relative viability (Dactolisib + OSI-027; first compound 0.2 µM),relative viability (AZ505 + Pemetrexed; first compound 0.08 µM),relative viability (AZ505 + Pemetrexed; first compound 0.253 µM),relative viability (AZ505 + Pemetrexed; first compound 0.8 µM),relative viability (AZ505 + Pemetrexed; first compound 2.53 µM),relative viability (AZ505 + Pemetrexed; first compound 8 µM)
SW 1573,0.556,0.336,0.299,0.185,0.149,0.557,0.324,0.418,0.162,0.145,0.702,0.579,0.5,0.199,0.167,0.761,0.851,0.928,0.869,0.876
ChaGo-K-1,0.558,0.541,0.51,0.527,0.501,0.404,0.419,0.421,0.457,0.443,0.538,0.528,0.571,0.537,0.609,0.26,0.268,0.28,0.252,0.258
COR-L 105,0.578,0.629,0.598,0.395,0.326,0.629,0.744,0.76,0.592,0.367,0.776,0.619,0.478,0.385,0.314,0.979,1.05,1.06,1.1,1.14
NCI-H1975,0.387,0.349,0.394,0.286,0.25,0.778,0.817,0.632,0.302,0.269,0.676,0.676,0.591,0.297,0.244,0.289,0.311,0.309,0.307,0.301
NCI-H1993,0.722,0.503,0.511,0.389,0.46,1.29,0.865,0.827,0.432,0.37,0.596,0.496,0.615,0.469,0.589,0.63,0.66,0.568,0.651,0.677
RERF-LC-KJ,0.752,0.726,0.644,0.316,0.443,1.06,0.893,0.829,0.385,0.403,0.699,0.604,0.585,0.397,0.433,0.448,0.454,0.505,0.449,0.434
NCI-H23,0.295,0.296,0.316,0.263,0.234,0.266,0.254,0.239,0.223,0.161,0.683,0.577,0.564,0.308,0.385,0.638,0.506,0.604,0.73,0.668
HCC-366,0.376,0.338,0.256,0.28,0.133,0.243,0.356,0.38,0.166,0.142,0.924,0.863,0.889,0.469,0.556,0.142,0.174,0.179,0.2,0.16
